The target in series [1] is T1, ATG4B (Homo sapiens, UniProt Q9Y4P1).
T1 sequence (Q9Y4P1 1-393): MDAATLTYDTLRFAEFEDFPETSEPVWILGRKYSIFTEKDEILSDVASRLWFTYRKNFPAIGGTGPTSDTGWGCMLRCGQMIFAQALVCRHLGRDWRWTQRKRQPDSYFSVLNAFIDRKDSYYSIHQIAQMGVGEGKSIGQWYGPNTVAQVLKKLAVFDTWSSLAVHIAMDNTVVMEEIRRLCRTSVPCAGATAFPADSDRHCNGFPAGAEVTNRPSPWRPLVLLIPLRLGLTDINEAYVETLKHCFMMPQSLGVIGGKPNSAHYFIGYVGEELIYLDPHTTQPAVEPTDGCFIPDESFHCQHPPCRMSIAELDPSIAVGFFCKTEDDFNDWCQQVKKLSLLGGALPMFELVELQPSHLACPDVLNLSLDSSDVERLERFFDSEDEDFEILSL
Put plainly: ATG4B reporter yeast cell-based assay. The settings on record: ATG4 reporter yeast cells, FIG. 2. On the procedure: (§1) Quantitative results are shown in each panel (n=4). […] Bar: 100 μm.
FIGS. 55-58 show the characterization of yeast based ATG4B reporter assay for hts. (FIG. 55) Two-fold serial titrated yeast that harbored the LC3 reporter with wild type ATG4B (WT) or catalytic mutant (C74A) expression vector and reporter vector were seeded into a 384-well plate for 24 or 48 h. The substrate of […] X-gal (80 μg/ml) was included in the SD medium for the colorimetric assay. (FIG. 56) Beta-Glo was added into each well as (A) at 24 or 48 h to optimize the yeast concentration for the luminescent substrate. (FIG. 57) Yeast that harbored the wild type (WT) ATG4B and catalytic mutant (C74A) were used to determine the ratio of signal (WT)/background (C74A) and compare the sensitivity between the colorimetric and luminescent substrates. (FIG. 58) […] of yeast reporter cells (1.5×10^4 cells/ml) as previously described were seeded into a 384-well white plate for 24 h. Ten μl of the luminescent substrate Beta-Glo was added to each well, and the luminescent signal was read to determine the ATG4B activity. The luminescent signal between the wild type (WT) ATG4B and catalytic mutant (C/A) was used to determine the assay robustness (Z′ factor: 0.78).

Series [2] has as its system H4, HCT116 and MDA-MB-231 cells. Put plainly: Cell viability assay (CellTiter-Glo, cellular impedance). The series is classed as cell-based, human. In general terms: In ATP-based viability assays light output follows the ATP content of the culture.
Description: Cells were seeded into a 384-well plate overnight and treated with various drugs for 24 h. CellTiter-Glo (Promega, Madison, Wis., USA) was subsequently added to the treated cells, and the luminescence was read using a Fluoroskan Ascent FL reader (Thermo Fisher Scientific). Alternatively, the cell viability was monitored with an impedance-based instrument system (iCELLigence, ACEA Biosciences) for live cells. Briefly, H4 cells, HCT116 cells and MDA-MB-23 cells (4×10^4 cells/well) were seeded into electronic plates (E-Plates L8, ACEA Biosciences) with 400 μl of DMEM that contained 10% FBS and incubated for 30 h. […] The cellular impedance was periodically measured every 15 minutes until 80 h.
The cell viability was accessed with CellTiter-Glo.
In series [3] the test system is HCT116 cells. Put plainly: Caspase-3 activation (Caspase-Glo 3/7, immunoblotting of caspase-3 and PARP). The series is classed as cell-based, human. The settings on record: for caspase-3/7 activity and cleavage of caspase-3 and PARP: cells exposed to Dox (1 μM) alone or co-treated with tioconazole (40 μM).
Description: The cell lysates were used for immunoblotting with antibodies against the primary antibodies against ATG4B (A2981), LC3 (L7543), and ACTB (β-actin, A5441) (all purchased from Sigma-Aldrich). […] The membrane was scanned and analyzed for the protein expression level with the ChemiDoc XRS Imaging System (Bio-Rad).
In series [4] the target is T1, ATG4B. The settings on record: ATG4B 1 nM, 500 nM GABARAPL2-PLA2, 1 h, anti-Myc.
Description: (§2) The fluorescence intensity was kinetically monitored for 1 h to determine the ATG4 activity at room temperature with excitation and emission wavelengths of 485 and 530 nm, respectively.
(§3) For cleavage of GABARAPL2-PLA2 and caspase-3 activation, reaction mixtures or cell lysates were immunoblotted with antibodies against Myc (Roche, 11667149001), caspase-3 (Cell Signaling, 9661), PARP (Cell Signaling, 9532) and GAPDH (Cell Signaling, 5174).
(§4) (FIG. 5) ATG4B (1 nM) or (FIG. 6) ATG4A (50 nM) was mixed with 10-fold serially diluted Tc and 500 nM GABARAPL2-PLA2 for 1 h. The cleavage of GABARAPL2-PLA2 was validated with immunoblotting using an anti-Myc antibody.
In series [5] the target is T2, ATG4A (Homo sapiens, UniProt Q8WYN0). The settings on record: ATG4A 50 nM, 500 nM GABARAPL2-PLA2, 1 h, anti-Myc.
Description: as §2, §3, §4
Another series addresses ATG4 (Homo sapiens, UniProt Q9Y4P1). The note with it: HEK293T cells, FIG. 8.
The next series addresses ATG4B and LC3 complex (Homo sapiens, UniProt Q9Y4P1). The settings on record: HEK293T cells, flow cytometry. For orientation: Flow cytometry measures light scatter and fluorescence of single cells or particles in a stream.
In series [6] the test system is H4 cells that stably express GFP-LC3. The settings on record: tioconazole 8 h.
Description: The treated cells were fixed to observe the GFP-LC3 puncta via fluorescence microscopy. For protein colocalization, the H4 stable cells previously described were transfected with 1 μg plasmids Cherry tagged ATG4B or Lamp1-RFP (Addgene, 1817) for 36 h using Lipofectamine 2000 (Invitrogen).
(FIG. 17) Human glioma H4 cells that stably express GFP-LC3 were transfected with 5 nM non-targeting siRNA (Ctrl) or siRNA against ATG4 family members (ATG4) for 48 h, and the knockdown efficiency of ATG4 was verified with real time PCR. (FIG. 18) The knockdowned cells were fixed for observation via fluorescence microscopy, and the number of GFP-LC3 puncta is quantified in the right panel. […] The autophagy inhibitor CQ was used as a positive control. […] Representative autophagic vacuoles (AVs) are shown. […] (FIG. 22) The numbers of AVs for each optical section (9 m^2) are quantified (n=8). (FIG. 23) HCT116 cells expressing GFP-LC3 and RFP-Lamp1 were treated with Tc for 6 h and fixed to observe colocalization of GFP-LC3 and RFP-Lamp1 with confocal microscopy. […] The colocalization coefficients of images were quantified by the Ziess LSM 710 Software and are shown in the right panel. […] Cells were harvested for immunoblotting using antibodies against LC3, ATG4B or ACTB, and autophagy flux was quantified in untreated cells and cells treated with CQ based on changes in LC3-II. […]
Series [7] deals with HCT116 cells. The settings on record: Tc 40 μM, versus untreated cells.
Description: HCT116 cells treated with T2 (40 μM), CQ (20 μM) for 8 h were rinsed with PBS once and fixed in 2% glutaraldehyde at room temperature for 30 min. The cells were harvested to postfix with 1% osmium tetroxide and stained with 2% uranyl acetate (Agar Scientific) at room temperature for 1 h. The cell pellets were embedded to obtain 80 nm sections with a diamond knife. The sections were stained with 2% uranyl acetate and 0.3% lead citrate (Agar Scientific) and imaged with a JEM1400 PLUS transmission electron microscope (JEOL).
The autophagy inhibitor CQ was used as a positive control. Bar: 20 μm. […] Representative autophagic vacuoles (AVs) are shown. Arrowhead: autophagosome. Bar: 200 nm. (FIG. 22) The numbers of AVs for each optical section (9 m^2) are quantified (n=8).
Series [8] deals with HCT116 and H4 cells expressing GFP-LC3 and RFP-Lamp1. The note with it: Tc 6 h, confocal microscopy.
Description: Human colorectal cancer HCT116 cells, glioblastoma H4 cells and breast cancer MDA-MB-231 from the ATCC were cultured in Dulbecco's modified Eagle's medium (DMEM) (Invitrogen, 12100-046) supplemented with 10% HyClone fetal bovine serum, penicillin (100 U/ml), and streptomycin (100 mg/ml). […] The treated cells were harvested to determine cell viability, apoptosis and immunoblotting.
The treated cells were fixed to observe the GFP-LC3 puncta via fluorescence microscopy.
(FIG. 23) HCT116 cells expressing GFP-LC3 and RFP-Lamp1 were treated with Tc for 6 h and fixed to observe colocalization of GFP-LC3 and RFP-Lamp1 with confocal microscopy. GFP-LC3 that had colocalized with or was surrounded by RFP-Lamp1 was identified as fusion between autophagosomes and lysosomes. The colocalization coefficients of images were quantified by the Ziess LSM 710 Software and are shown in the right panel. Bar: 20 m.
Series [9] has as its system H4, HCT116 or MDA-MB-231 cells.
Description: The cells were briefly rinsed in PBS (Biological Industries, 02-023-1) and lysed with RIPA buffer (1% NP40 [MDBio, 101-9016-45-9], 50 mM Tris HCl, pH 7.5, 150 mM NaCl, 0.25% sodium deoxycholate [Sigma-Aldrich, D6750], 1% sodium dodecyl sulfate [SDS; Calbiochem, 428015], and protease inhibitor cocktail [Roche, 11873580001]). The cell lysates were used for immunoblotting with antibodies against the primary antibodies against ATG4B (A2981), LC3 (L7543), and ACTB (β-actin, A5441) (all purchased from Sigma-Aldrich). The differential accumulations of LC3 in cells with and without CQ were used to quantitate the autophagic flux (Mizushima et al., 2010). […] The proteins were probed with an HRP-labeled secondary antibody (Santa Cruz, sc-2004 or sc-2005) and detected with an ECL reagent. The membrane was scanned and analyzed for the protein expression level with the ChemiDoc XRS Imaging System (Bio-Rad).
The autophagy inhibitor CQ was used as a positive control. […] (FIG. 24) HCT16 cells were transfected with siRNA (5 nM) for 66 h and then treated with CQ (20 μM) for 2 h. Cells were harvested for immunoblotting using antibodies against LC3, ATG4B or ACTB, and autophagy flux was quantified in untreated cells and cells treated with CQ based on changes in LC3-II. […] (FIG. 26) The autophagic flux was quantified as described in FIG. 25.
The test system of another series is HCT116 and H4 cells. The settings on record: Dox-treated cells, Tc 40 μM, JC-1.
A further series relates to HCT116 spheroids. The note with it: 48 h.
Series [10] has as its target T1, ATG4B. As to the kind of experiment: biochemical.
Description: as §2, §3, §4
The target of series [11] is T2, ATG4A. Put plainly: biochemical.
Description: as §2, §3, §4
For series [12], the system named is HCT116 cells. Put plainly: FACS cell cycle distribution, subG1 population. The settings on record: Dox 1 μM, 24 h.
Series [13] has as its target T1, ATG4B. Put plainly: LC3-PLA2 biochemical ATG4 reporter assay. The note with it: FIG. 2 and 4.
Description: as §1

Setting [14] is: tioconazole-treated mice, immunohistochemistry.

T2 sequence (Q8WYN0 whole entry): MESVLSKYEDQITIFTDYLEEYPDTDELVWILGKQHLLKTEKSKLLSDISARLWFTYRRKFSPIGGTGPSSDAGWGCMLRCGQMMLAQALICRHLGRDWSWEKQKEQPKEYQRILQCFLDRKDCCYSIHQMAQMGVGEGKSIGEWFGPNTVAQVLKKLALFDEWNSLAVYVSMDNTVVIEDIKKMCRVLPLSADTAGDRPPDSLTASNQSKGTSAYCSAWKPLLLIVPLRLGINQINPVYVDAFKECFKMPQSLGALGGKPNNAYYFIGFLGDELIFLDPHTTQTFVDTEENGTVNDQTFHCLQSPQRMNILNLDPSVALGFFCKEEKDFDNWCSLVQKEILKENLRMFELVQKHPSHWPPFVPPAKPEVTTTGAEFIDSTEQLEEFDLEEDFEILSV
Description for ATG4B and LC3 complex: The plasmids (1 μg/well) were transfected with lipofectamine 2000 transfection reagent (Life Technologies, 11668-027) into HEK293T cells in a 6-well plate for 24 h. The cells were imaged via fluorescence microscopy or harvested to quantify the fluorescence intensity via a flow cytometer (Becton Dickinson).
After overnight culture, the cells were fixed to observe Venus complementary under fluorescence microscopy (right panel). […] (FIG. 10) The transfected cells were treated with Tc for 8 h and fixed for flow cytometry to quantify Venus fluorescence using GFP as a counter assay.
The cells were fixed to determine Venus complementation with flow cytometry and quantitated with FlowJo. HEK 293T cells transfected with or without GFP expression vector were used as the blank and counter controls, respectively.
Description for HCT116 spheroids: The cells (4000 cells/well) were seeded into an ultra-low attachment, 96-well plate (Costar®, USA) and grown overnight to form spheroid cells. […] The spheroid cells were stained with Calcein AM (1 μM) and Ethidium homodimer-1 (EthD-1, 2 μM) (LIVE/DEAD® Viability/Cytotoxicity Kit, ThermoFisher Scientific) for 30 minutes. The live (green) and dead (red) spheroid cells were imaged via fluorescence microscopy and quantitated using a Fluoroskan Ascent FL reader (Thermo Fisher Scientific) with excitation at 485 nm and emissions at 530 nm and 645 nm for calcein AM and EthD-1, respectively.
(FIG. 44) HCT116 cells were cultured in an ultra-low attachment dish for 24 h to form spheres. […] Scale bar: 400 μm. (FIG. 45) The relative sphere volume was quantified using DMSO-treated cells as the normalized control. (FIG. 46) HCT116 sphere-forming cells treated as (A) were lysed to measure ATP levels and assess cell viability. […] The viable and dead spheres were imaged with a LIVE/DEAD staining kit. The knockdown efficiency of ATG genes was verified by immunoblotting (left panel) (FIG. 48) The red fluorescence of the spheres in FIG. 47 was quantitated with a reader to assess the dead cell population (n=6).
Description for HCT116 xenograft tumors: Human colorectal cancer HCT116 cells (2×10^6) were mixed with Matrigel (1:1) and subcutaneously implanted into six-week old immunodeficient mice (nu/nu, female). […] The tumor size in each mouse was measured every 3 to 4 days with vernier calipers, and the tumor volumes were calculated using the formula (larger diameter)×(smaller diameter)2×7π/6. Tumors were further cut from euthanized mice and embedded in paraffin. […] The protein levels in the tumor sections were determined using the UltraVision™ Quanto Detection System HRP DAB (Thermo Scientific) and observed under microscopy.
The tumor volume (circle) in each mouse was measured every 3 to 4 days (5 per group). The p values were determined with an ANOVA. […] The quantified results were obtained from at least 1500 cells and are shown in the right panel. p>0.05; *p<0.05; **p<0.01; ***p<0.001.

`Clc1ccc(C(Cn2ccnc2)OCc2ccsc2Cl)c(Cl)c1` (stereo not shown) [tioconazole]: the “inhibition in the yeast cell-based assay” value at ATG4B [1] was “strong inhibition”. For the same compound, in series [2] (cancer cell lines, tioconazole 40 μM combined with starvation or chemotherapeutic drugs), the “cytotoxic effects of starvation and chemotherapy” value was “enhanced the cytotoxic effects of starvation and chemotherapy”. For the same compound, the cell viability result in series [2] (cancer cell lines, tioconazole 40 μM, cellular ATP levels or impedance) was “significantly reduced the cell viability”. Besides, in the series on HCT116 cells [3], the “caspase-3/7 activity and cleavage of caspase-3 and PARP” value is “significantly elevated”. The “cleavage of GABARAPL2-PLA2 by ATG4B (immunoblotting)” value at ATG4B [4] is recorded as “blocked the cleavage”. Further, the “cleavage of GABARAPL2-PLA2 by ATG4A (immunoblotting)” value at ATG4A [5] is on record as “blocked the cleavage”. Also, the “luciferase activity in ATG4 reporter cells” value at ATG4 was “increased the luciferase activity”. The “cleavage of chimera luciferase in reporter cells” value at ATG4 (immunoblotting) is reported as “attenuated the cleavage of chimera luciferase”. On ATG4B and LC3 complex (Tc 8 h), the “fluorescence from formation of the ATG4B and LC3 complex (BiFC)” value is “reduced the fluorescence”. The “GFP fluorescence (counter assay)” value at ATG4B and LC3 complex is “did not affect GFP fluorescence”. In [6], the GFP-LC3-II puncta result is reported as “accumulation of GFP-LC3-II puncta”. The “number of autophagosomes (TEM)” value with HCT116 cells [7] is on record as “increased”. Besides, the “co-localization of LC3 and LAMP1” value in series [8] was “decreased the co-localization of LC3 and LAMP1”. Besides, the “autophagic flux (LC3-II accumulation with and without CQ)” value in series [9] (Tc 6 h, with or without CQ 20 μM) is “significantly attenuated autophagic flux”. In addition, the “LC3-II turnover and SQSTM1 degradation triggered by starvation and chemotherapeutic drugs” value in series [9] (cancer cells, starvation or CPT/Dox 24 h, immunoblotting) is “blocked LC3-II turnover and SQSTM1 degradation”. In addition, the “mitochondrial membrane potential (MMP)” value with HCT116 and H4 cells was “reduction of mitochondrial membrane potential”. Moreover, in the series on HCT116 spheroids (HCT116 spheroids, Tc 40 μM), the “size of tumor spheroids” value is given as “significantly decreased the size of tumor spheroids”. Besides, the “cytotoxicity of Dox in spheroids (ATP levels, number of dead cells)” value with HCT116 spheroids (Tc 40 μM with Dox 1 μM) is reported as “enhanced the cytotoxicity of Dox”. The “Dox-induced cell death in spheres with scramble shRNA and shRNA against ATG4B” value with HCT116 spheroids (Tc 40 μM, Dox 1 μM, LIVE/DEAD staining) was “enhanced Dox-induced cell death”. The xenograft tumor weight entry in the series on HCT116 xenograft tumors (Tc 60 mg/kg intraperitoneal every other day, day 21) is reported as “reduced the xenograft tumor weight”. The “sensitivity of xenograft tumors to Dox” value in the series with HCT116 xenograft tumors (Tc 60 mg/kg with Dox 1 mg/kg intraperitoneal every other day) is recorded as “sensitized xenograft tumors to Dox”. Also, the “levels of cleaved caspase-3 in tumor tissues” value in the series on HCT116 xenograft tumors (setting [14]) is reported as “significantly increased”. Further, the “number of LC3 puncta in tumor tissues” value in the series on HCT116 xenograft tumors (setting [14]) is on record as “significantly increased”. Besides, the IC50 worked out at 1800 ± 160 nM against ATG4B [10] and 1300 ± 180 nM against ATG4A [11]. For the same compound, in the series on HCT116 cells [12], the “cell death in combination with Dox (subG1 proportion)” value is recorded as “synergistically increased cell death”.
`Clc1ccc(COC(Cn2ccnc2)c2ccc(Cl)cc2Cl)c(Cl)c1` (stereo not shown) [miconazole]: at ATG4B [13], the “inhibitory effect on ATG4B compared with tioconazole” value was “failed to exhibit as good inhibitory effect on ATG4B as tioconazole”. Moreover, the “cell death in combination with Dox (subG1 proportion)” value with HCT116 cells [12] is “less potently synergized with Dox”.
For the compound `COc1cccc2c1C(=O)c1c(O)c3c(c(O)c1C2=O)C[C@@](O)(C(=O)CO)C[C@@H]3O[C@H]1C[C@H](N)[C@H](O)[C@H](C)O1` [Dox, Doxorubicin], in the series on HCT116 cells [3], the “caspase-3/7 activity and cleavage of caspase-3 and PARP” value is recorded as “significantly elevated”.
Take z-VAD-fmk: in [2] (zVAD-FMK 50 μM pretreatment, Tc 40 μM, Dox 1 μM 24 h), the “apoptotic effects of tioconazole and Dox after pretreatment (cell viability)” value is given as “rescued the apoptotic effects”. In addition, the “caspase-3 activation after pretreatment” value in the series with HCT116 cells [3] (zVAD-FMK 50 μM, cells treated with tioconazole and Dox) is given as “blocked caspase-3 activation”.

Usually IC50 stands for the concentration that gives 50% inhibition.

These data come from patent US10583123B2, “Method for the treatment of ATG4-related disorders” (National Tsing Hua University, priority 2017, dated 2020).
